Assay results published in patent US11370798B2 (Vertex Pharmaceuticals Incorporated, priority 2012, dated 2022).

Test system: HCT116 colorectal cancer cells
Assay: Cisplatin sensitization assay (96 h cell viability MTS);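 also: Test-compound concentration that lowers the Cisplatin IC50 by a set fold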
Type: cell-based
Details: compound and Cisplatin added simultaneously, Cisplatin sensitization value
In short: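 Compound and cisplatin added together as a full matrix of 2-fold serial dilutions from a top final concentration of 10 μM; cells incubated 96 h at 37° C, 5% CO2. Viability then read by MTS after 1 h further incubation; sensitization value reported in μM bins.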

| SMILES | Cisplatin Sensitization Assay |
| --- | --- |
| CN(C)CCCNC(=O)C1CCN(c2c(F)cncc2NC(=O)c2c(N)nn3cc(F)cnc23)CC1 [I-G-26, 2-amino-N-(4-(4-((3-(dimethylamino)propyl)carbamoyl)piperidin-1-yl)-5-fluoropyridin-3-yl)-6-fluoropyrazolo[1,5-a]pyrimidine-3-carboxamide] | ++ (Cisplatin sensitization value>0.02 μM but <0.2 μM) |
| Cn1ccc2c(NC(=O)c3c(N)nn4cc(F)cnc34)cncc21 [I-C-74, 2-amino-6-fluoro-N-(1-methyl-1H-pyrrolo[2,3-c]pyridin-4-yl)pyrazolo[1,5-a]pyrimidine-3-carboxamide] | + (Cisplatin sensitization value>0.2 μM but <5 μM) |
| Nc1nn2cc(F)cnc2c1C(=O)Nc1cnccc1N1CCC(C(=O)N2CCOCC2)CC1 [I-G-85, 2-amino-6-fluoro-N-(4-(4-(morpholine-4-carbonyl)piperidin-1-yl)pyridin-3-yl)pyrazolo[1,5-a]pyrimidine-3-carboxamide] | +++ (Cisplatin sensitization value of <0.02 μM) |
| Nc1nn2cc(F)cnc2c1C(=O)Nc1cnccc1O[C@H]1CCCN(C2COC2)C1 [I-O-9, (S)-2-amino-6-fluoro-N-(4-((1-(oxetan-3-yl)piperidin-3-yl)oxy)pyridin-3-yl)pyrazolo[1,5-a]pyrimidine-3-carboxamide] | ++ (Cisplatin sensitization value>0.02 μM but <0.2 μM) |
| COCCN1CCN(c2c(F)cncc2NC(=O)c2c(N)nn3cc(F)cnc23)CC1 [I-N-127, 2-amino-6-fluoro-N-(5-fluoro-4-(4-(2-methoxyethyl)piperazin-1-yl)pyridin-3-yl)pyrazolo[1,5-a]pyrimidine-3-carboxamide] | +++ (Cisplatin sensitization value of <0.02 μM) |
| Nc1nn2cc(F)cnc2c1C(=O)Nc1cncc(F)c1N1CCC(C(=O)N2CCNC3CC32)CC1 (centres unmarked) [I-G-62, N-(4-(4-(2,5-diazabicyclo[4.1.0]heptane-2-carbonyl)piperidin-1-yl)-5-fluoropyridin-3-yl)-2-amino-6-fluoropyrazolo[1,5-a]pyrimidine-3-carboxamide] | +++ (Cisplatin sensitization value of <0.02 μM) |
| Nc1nn2cc(F)cnc2c1C(=O)Nc1cnccc1-c1ccc(C(=O)N2CCC(N3CCCC3)CC2)nc1 [I-C-53, 2-amino-6-fluoro-N-(6-(4-(pyrrolidin-1-yl)piperidine-1-carbonyl)-[3,4′-bipyridin]-3′-yl)pyrazolo[1,5-a]pyrimidine-3-carboxamide] | +++ (Cisplatin sensitization value of <0.02 μM) |
| COc1ccncc1NC(=O)c1c(N)nn2cc(Cl)cnc12 [I-O-57, 2-amino-6-chloro-N-(4-methoxypyridin-3-yl)pyrazolo[1,5-a]pyrimidine-3-carboxamide] | +++ (Cisplatin sensitization value of <0.02 μM) |
| COCCOc1ccncc1NC(=O)c1c(N)nn2cc(Cl)cnc12 [I-O-55, 2-amino-6-chloro-N-(4-(2-methoxyethoxy)pyridin-3-yl)pyrazolo[1,5-a]pyrimidine-3-carboxamide] | ++ (Cisplatin sensitization value>0.02 μM but <0.2 μM) |
| Nc1nn2cc(F)cnc2c1C(=O)Nc1cnccc1N1CCC2(CC1)COC2 [I-N-226, N-(4-(2-oxa-7-azaspiro[3.5]nonan-7-yl)pyridin-3-yl)-2-amino-6-fluoropyrazolo[1,5-a]pyrimidine-3-carboxamide] | +++ (Cisplatin sensitization value of <0.02 μM) |
| COCCn1cncc1-c1ccncc1NC(=O)c1c(N)nn2cc(F)cnc12 [I-C-83, 2-amino-6-fluoro-N-(4-(1-(2-methoxyethyl)-1H-imidazol-5-yl)pyridin-3-yl)pyrazolo[1,5-a]pyrimidine-3-carboxamide] | ++ (Cisplatin sensitization value>0.02 μM but <0.2 μM) |
| CC(C)(O)C1CCN(c2ccncc2NC(=O)c2c(N)nn3cc(Cl)cnc23)CC1 [I-N-69, 2-amino-6-chloro-N-(4-(4-(2-hydroxypropan-2-yl)piperidin-1-yl)pyridin-3-yl)pyrazolo[1,5-a]pyrimidine-3-carboxamide] | +++ (Cisplatin sensitization value of <0.02 μM) |
| CN(C)CCc1cnn(-c2ccncc2NC(=O)c2c(N)nn3cc(F)cnc23)c1 [I-N-9, 2-amino-N-(4-(4-(2-(dimethylamino)ethyl)-1H-pyrazol-1-yl)pyridin-3-yl)-6-fluoropyrazolo[1,5-a]pyrimidine-3-carboxamide] | + (Cisplatin sensitization value>0.2 μM but <5 μM) |
| Nc1nn2cc(F)cnc2c1C(=O)Nc1cncc(Cl)c1N1CCC(C(=O)N2CCN3CCC2CC3)CC1 [I-G-66, N-(4-(4-(1,4-diazabicyclo[3.2.2]nonane-4-carbonyl)piperidin-1-yl)-5-chloropyridin-3-yl)-2-amino-6-fluoropyrazolo[1,5-a]pyrimidine-3-carboxamide] | +++ (Cisplatin sensitization value of <0.02 μM) |
| CN1CCC(C(=O)N2CCN(c3c(F)cncc3NC(=O)c3c(N)nn4cc(F)cnc34)CC2)C1 (centres unmarked) [I-N-156, 2-amino-6-fluoro-N-(5-fluoro-4-(4-(1-methylpyrrolidine-3-carbonyl)piperazin-1-yl)pyridin-3-yl)pyrazolo[1,5-a]pyrimidine-3-carboxamide] | +++ (Cisplatin sensitization value of <0.02 μM) |
| COCC1CN(c2ccncc2NC(=O)c2c(N)nn3cc(Cl)cnc23)CCN1C (centres unmarked) [I-N-47, 2-amino-6-chloro-N-(4-(3-(methoxymethyl)-4-methylpiperazin-1-yl)pyridin-3-yl)pyrazolo[1,5-a]pyrimidine-3-carboxamide] | ++ (Cisplatin sensitization value>0.02 μM but <0.2 μM) |
| CN1CCN2CCN(c3ccncc3NC(=O)c3c(N)nn4cc(Cl)cnc34)CC2C1 (centres unmarked) [I-N-61, 2-amino-6-chloro-N-(4-(8-methylhexahydro-1H-pyrazino[1,2-a]pyrazin-2(6H)-yl)pyridin-3-yl)pyrazolo[1,5-a]pyrimidine-3-carboxamide] | +++ (Cisplatin sensitization value of <0.02 μM) |
| Nc1nn2cc(F)cnc2c1C(=O)Nc1cncc(F)c1N1CCN2C(=O)OC[C@@H]2C1 [I-N-248, (S)-2-amino-6-fluoro-N-(5-fluoro-4-(3-oxotetrahydro-1H-oxazolo[3,4-a]pyrazin-7(3H)-yl)pyridin-3-yl)pyrazolo[1,5-a]pyrimidine-3-carboxamide] | ++ (Cisplatin sensitization value>0.02 μM but <0.2 μM) |
| CN(C)Cc1ccc(Oc2ccncc2NC(=O)c2c(N)nn3cc(F)cnc23)cn1 [I-O-3, 2-amino-N-(4-((6-((dimethylamino)methyl)pyridin-3-yl)oxy)pyridin-3-yl)-6-fluoropyrazolo[1,5-a]pyrimidine-3-carboxamide] | ++ (Cisplatin sensitization value>0.02 μM but <0.2 μM) |
| Nc1nn2cc(F)cnc2c1C(=O)Nc1cncc(F)c1N1CCN2C(=O)CC[C@@H]2C1 [I-N-182, (R)-2-amino-6-fluoro-N-(5-fluoro-4-(6-oxohexahydropyrrolo[1,2-a]pyrazin-2(1H)-yl)pyridin-3-yl)pyrazolo[1,5-a]pyrimidine-3-carboxamide] | ++ (Cisplatin sensitization value>0.02 μM but <0.2 μM) |
| N#CC1(C(=O)N2CCC(c3ccncc3NC(=O)c3c(N)nn4cc(F)cnc34)CC2)CC1 [I-C-71, 2-amino-N-(4-(1-(1-cyanocyclopropanecarbonyl)piperidin-4-yl)pyridin-3-yl)-6-fluoropyrazolo[1,5-a]pyrimidine-3-carboxamide] | +++ (Cisplatin sensitization value of <0.02 μM) |
| CCC(C#N)c1cnc2c(C(=O)Nc3cnccc3OC)c(N)nn2c1 (centres unmarked) [I-O-20, 2-amino-6-(1-cyanopropyl)-N-(4-methoxypyridin-3-yl)pyrazolo[1,5-a]pyrimidine-3-carboxamide] | ++ (Cisplatin sensitization value>0.02 μM but <0.2 μM) |
| Nc1nn2cc(F)cnc2c1C(=O)Nc1cnccc1-c1ccccc1 [I-C-5, 2-amino-6-fluoro-N-(4-phenylpyridin-3-yl)pyrazolo[1,5-a]pyrimidine-3-carboxamide] | +++ (Cisplatin sensitization value of <0.02 μM) |
| CN1CC2(CCC1=O)CCN(c1ccncc1NC(=O)c1c(N)nn3cc(F)cnc13)CC2 [I-N-231, 2-amino-6-fluoro-N-(4-(2-methyl-3-oxo-2,9-diazaspiro[5.5]undecan-9-yl)pyridin-3-yl)pyrazolo[1,5-a]pyrimidine-3-carboxamide] | +++ (Cisplatin sensitization value of <0.02 μM) |
| CN1CC2(CCN(c3c(F)cncc3NC(=O)c3c(N)nn4cc(F)cnc34)CC2)OC1=O [I-N-229, 2-amino-6-fluoro-N-(5-fluoro-4-(3-methyl-2-oxo-1-oxa-3,8-diazaspiro[4.5]decan-8-yl)pyridin-3-yl)pyrazolo[1,5-a]pyrimidine-3-carboxamide] | +++ (Cisplatin sensitization value of <0.02 μM) |
| CN(C)S(=O)(=O)C1CCN(c2c(F)cncc2NC(=O)c2c(N)nn3cc(F)cnc23)CC1 [I-N-146, 2-amino-N-(4-(4-(N,N-dimethylsulfamoyl)piperidin-1-yl)-5-fluoropyridin-3-yl)-6-fluoropyrazolo[1,5-a]pyrimidine-3-carboxamide] | +++ (Cisplatin sensitization value of <0.02 μM) |
| N#CC1CN(C(=O)C2CCN(c3ccncc3NC(=O)c3c(N)nn4cc(F)cnc34)CC2)C1 [I-G-81, 2-amino-N-(4-(4-(3-cyanoazetidine-1-carbonyl)piperidin-1-yl)pyridin-3-yl)-6-fluoropyrazolo[1,5-a]pyrimidine-3-carboxamide] | +++ (Cisplatin sensitization value of <0.02 μM) |
| Nc1nn2cc(F)cnc2c1C(=O)Nc1cnccc1N1CCN([C@@H]2CCOC2)CC1 [I-N-10, (R)-2-amino-6-fluoro-N-(4-(4-(tetrahydrofuran-3-yl)piperazin-1-yl)pyridin-3-yl)pyrazolo[1,5-a]pyrimidine-3-carboxamide] | ++ (Cisplatin sensitization value>0.02 μM but <0.2 μM) |
| CN(C)CCOc1ccncc1NC(=O)c1c(N)nn2cc(CC#N)cnc12 [I-O-24, 2-amino-6-(cyanomethyl)-N-(4-(2-(dimethylamino)ethoxy)pyridin-3-yl)pyrazolo[1,5-a]pyrimidine-3-carboxamide] | ++ (Cisplatin sensitization value>0.02 μM but <0.2 μM) |
